Assay results taken from publication PMC9226124, “Macrocycle-stabilization of its interaction with 14-3-3 increases plasma membrane localization and activity of CFTR” (Nature Communications, 2022).
Several values for one entry are separate records, joined by “and”; a condition that tells them apart may be missing. Equal entries are not always repeated. Where two headings read alike, the source gives them in different places.

Tests used:
[1] = molecular target: T1, 14-3-3β/CFTRpS753pS768 complex (Homo sapiens, UniProt P13569+P31946); experiment: FP assay, 14-3-3β titration at constant compound concentration (apparent KD); format: binding
T1 construct: His6 (cleaved yes); made in house; peptide synthetic
Protocol: FC-A (100 µM) was added as a positive control and DMSO as the negative control. […] Background polarization was subtracted from all values, n = 3 technical replicates. […] Source data are provided as a Source Data file. […]
The FITC-labeled peptides were dissolved in FP buffer (10 mM HEPES pH 7.4, 150 mM NaCl, 0.1% Tween20, 1 mg/mL BSA) to a final concentration of 100 nM or 10 nM. […] The dilution series were made in 384 Corning Black Round Bottom well plates and their polarization was measured with a Tecan Infinite F500 plate reader (ex. = 485 nm, em. = 535 nm). The method of fitting of the curves was: “log(agonist) vs. response – Variable slope (four parameters)” from GraphPad Prism. The equation is Y = Bottom + (Top-Bottom)/(1 + 10^((LogEC50-X)*HillSlope)).
from the hit validation library.
f the compound, 100 µM FC-A, or both compound and FC-A, 100 µM each. Background polarization was subtracted f
rom all values, n=3 technical replicates.
Source data are provided as a Source Data file.

[2] = molecular target: T1, 14-3-3β/CFTRpS753pS768 complex; experiment: Dose-response fluorescence polarization (FP) assay, compound titration; format: binding; conditions: for EC50: 14-3-3β 10 μM, labeled CFTRpS753pS768 100 nM; for FP signal: With 14-3-3
Protocol: The 14-3-3β concentration used for the FP screening assay was 10 μM (dashed line). c HTS FP assay of the Cyclenium library. The samples contain 100 nM of FITC-CFTR_pS753pS768 peptide, 10 μM 14-3-3β, and 50 μM compound. FC-A (100 µM) was added as a positive control and DMSO as the negative control. Hit compounds are defined as a polarization increase which is higher than 20% of the response of FC-A. Red squares are compounds that appeared positive in the negative control without 14-3-3. […] Background polarization was subtracted from all values, n = 3 technical replicates. Compounds selected for further analysis are indicated with an asterisk. e Polarization in the absence of 14-3-3. […] Source data are provided as a Source Data file. […]
The FITC-labeled peptides were dissolved in FP buffer (10 mM HEPES pH 7.4, 150 mM NaCl, 0.1% Tween20, 1 mg/mL BSA) to a final concentration of 100 nM or 10 nM. For the dose-response assays, a 14-3-3β concentration of 10 μM was used while titrating the compounds in a two-times dilution series and, for the other assays, a dilution series of 14-3-3β was made with constant concentration of compound. The dilution series were made in 384 Corning Black Round Bottom well plates and their polarization was measured with a Tecan Infinite F500 plate reader (ex. = 485 nm, em. = 535 nm). The method of fitting of the curves was: “log(agonist) vs. response – Variable slope (four parameters)” from GraphPad Prism. The equation is Y = Bottom + (Top-Bottom)/(1 + 10^((LogEC50-X)*HillSlope)).

T1 sequence (P31946 whole entry): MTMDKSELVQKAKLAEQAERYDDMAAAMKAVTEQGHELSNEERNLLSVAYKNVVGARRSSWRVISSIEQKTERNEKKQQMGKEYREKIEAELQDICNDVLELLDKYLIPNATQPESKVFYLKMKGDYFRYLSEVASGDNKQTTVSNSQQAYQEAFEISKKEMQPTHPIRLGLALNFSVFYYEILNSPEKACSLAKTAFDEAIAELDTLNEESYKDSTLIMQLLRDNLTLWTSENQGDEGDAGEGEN
T1 sequence (P13569 747-774 limits assumed): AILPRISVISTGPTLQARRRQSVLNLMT

N=C(N)NCCCC1NC(=O)C(CCCCN)NCc2ccccc2Sc2ccccc2CNC(=O)C(Cc2ccc(O)cc2)NC1=O (stereo not shown) [CY001951]
Fluorescence polarization signal, 14-3-3β titration ([1]; CY compound (100 μM), 14-3-3β concentration 119.2 pM): -2.333 | Fluorescence polarization signal, 14-3-3β titration ([1]; CY compound (100 μM), 14-3-3β concentration 2.44141e-7 M): 10.6667 and 8.667 | Fluorescence polarization signal, 14-3-3β titration ([1]; CY compound (100 μM), 14-3-3β concentration 4.88281e-7 M): 15.6667 and 13.6667 | Fluorescence polarization signal, 14-3-3β titration ([1]; CY compound (100 μM), 14-3-3β concentration 9.76563e-7 M): 27.6667 and 26.6667 and 29.6667 | Fluorescence polarization signal, 14-3-3β titration ([1]; CY compound (100 μM), 14-3-3β concentration 1.95313e-6 M): 40.6667 and 36.6667 | Fluorescence polarization signal, 14-3-3β titration ([1]; CY compound (100 μM), 14-3-3β concentration 3.90625e-6 M): 51.6667 and 49.6667 and 46.6667 | Fluorescence polarization signal, 14-3-3β titration ([1]; CY compound (100 μM), 14-3-3β concentration 7.8125e-6 M): 63.6667 and 58.6667 and 54.6667 | Fluorescence polarization signal, 14-3-3β titration ([1]; CY compound (100 μM), 14-3-3β concentration 1.5625e-5 M): 72.6667 and 68.6667 and 66.6667 | Fluorescence polarization signal, 14-3-3β titration ([1]; CY compound (100 μM), 14-3-3β concentration 3.125e-5 M): 82.6667 and 80.6667 | Fluorescence polarization signal, 14-3-3β titration ([1]; CY compound (100 μM), 14-3-3β concentration 6.25e-5 M): 93.6667 and 92.6667 and 96.6667 | Fluorescence polarization signal, 14-3-3β titration ([1]; CY compound (100 μM), 14-3-3β concentration 0.000125 M): 115.667 and 110.667 and 114.667 | Fluorescence polarization signal, 14-3-3β titration ([1]; CY compound (100 μM), 14-3-3β concentration 0.00025 M): 126.667 and 124.667 and 128.667 | Fluorescence polarization signal, 14-3-3β titration ([1]; CY compound (100 μM), 14-3-3β concentration 0.0005 M): 148.667 and 147.667 | Fluorescence polarization signal, 14-3-3β titration ([1]; FC-A + CY compound, 14-3-3β concentration 1.52588e-8 M): 4.333 and 2.333 and 3.333 | Fluorescence polarization signal, 14-3-3β titration ([1]; FC-A + CY compound, 14-3-3β concentration 6.10352e-8 M): 10.3333 and 8.333 | Fluorescence polarization signal, 14-3-3β titration ([1]; FC-A + CY compound, 14-3-3β concentration 1.2207e-7 M): 16.3333 and 18.3333 and 15.3333 | Fluorescence polarization signal, 14-3-3β titration ([1]; FC-A + CY compound, 14-3-3β concentration 2.44141e-7 M): 30.3333 and 31.3333 and 29.3333 | Fluorescence polarization signal, 14-3-3β titration ([1]; FC-A + CY compound, 14-3-3β concentration 4.88281e-7 M): 47.3333 and 45.3333 and 44.3333 | Fluorescence polarization signal, 14-3-3β titration ([1]; FC-A + CY compound, 14-3-3β concentration 9.76563e-7 M): 71.3333 and 70.3333 and 66.3333 | Fluorescence polarization signal, 14-3-3β titration ([1]; FC-A + CY compound, 14-3-3β concentration 1.95313e-6 M): 93.3333 and 85.3333 | Fluorescence polarization signal, 14-3-3β titration ([1]; FC-A + CY compound, 14-3-3β concentration 3.90625e-6 M): 110.333 and 108.333 and 107.333 | Fluorescence polarization signal, 14-3-3β titration ([1]; FC-A + CY compound, 14-3-3β concentration 7.8125e-6 M): 119.333 and 118.333 and 122.333 | Fluorescence polarization signal, 14-3-3β titration ([1]; FC-A + CY compound, 14-3-3β concentration 1.5625e-5 M): 129.333 and 131.333 and 128.333 | Fluorescence polarization signal, 14-3-3β titration ([1]; FC-A + CY compound, 14-3-3β concentration 3.125e-5 M): 139.333 and 142.333 and 140.333 | Fluorescence polarization signal, 14-3-3β titration ([1]; FC-A + CY compound, 14-3-3β concentration 6.25e-5 M): 148.333 and 150.333 | Fluorescence polarization signal, 14-3-3β titration ([1]; FC-A + CY compound, 14-3-3β concentration 0.000125 M): 156.333 and 152.333 | Fluorescence polarization signal, 14-3-3β titration ([1]; FC-A + CY compound, 14-3-3β concentration 0.00025 M): 161.333 and 163.333 and 160.333 | Fluorescence polarization signal, 14-3-3β titration ([1]; FC-A + CY compound, 14-3-3β concentration 0.0005 M): 171.333 and 173.333 | EC50 ([2]; read-out: EC50): 267 µM | FP signal ([2]; compound 476.8 pM): 3 | FP signal ([2]; compound 953.7 pM): 3 | FP signal ([2]; compound 1.90735e-9 M): 4 | FP signal ([2]; compound 3.8147e-9 M): 4 | FP signal ([2]; compound 7.6294e-9 M): 3 | FP signal ([2]; compound 1.52588e-8 M): 5 | FP signal ([2]; compound 3.05176e-8 M): 4 | FP signal ([2]; compound 6.10352e-8 M): 5 | FP signal ([2]; compound 1.2207e-7 M): 4 | FP signal ([2]; compound 2.44141e-7 M): 4 | FP signal ([2]; compound 4.88281e-7 M): 5 | FP signal ([2]; compound 9.76563e-7 M): 6 | FP signal ([2]; compound 1.95313e-6 M): 6 | FP signal ([2]; compound 3.90625e-6 M): 6 | FP signal ([2]; compound 7.8125e-6 M): 7 | FP signal ([2]; compound 1.5625e-5 M): 9 | FP signal ([2]; compound 3.125e-5 M): 16 | FP signal ([2]; compound 6.25e-5 M): 33 | FP signal ([2]; compound 0.000125 M): 73 | FP signal ([2]; compound 0.00025 M): 143 | FP signal ([2]; compound 0.0005 M): 201 | FP signal ([2]; compound 0.001 M): 252

NCCCCC1NCc2ccccc2Sc2ccccc2CNC(=O)C(Cc2cccc(Cl)c2)NC(=O)C(Cc2ccc(O)cc2)NC1=O (stereo not shown) [CY007288]
EC50 [2]: False positive | FP signal ([2]; compound 476.8 pM): 6 | FP signal ([2]; compound 953.7 pM): 6 | FP signal ([2]; compound 1.90735e-9 M): 5 | FP signal ([2]; compound 3.8147e-9 M): 4 | FP signal ([2]; compound 7.6294e-9 M): 7 | FP signal ([2]; compound 1.52588e-8 M): 6 | FP signal ([2]; compound 3.05176e-8 M): 5 | FP signal ([2]; compound 6.10352e-8 M): 4 | FP signal ([2]; compound 1.2207e-7 M): 4 | FP signal ([2]; compound 2.44141e-7 M): 5 | FP signal ([2]; compound 4.88281e-7 M): 6 | FP signal ([2]; compound 9.76563e-7 M): 6 | FP signal ([2]; compound 1.95313e-6 M): 5 | FP signal ([2]; compound 3.90625e-6 M): 8 | FP signal ([2]; compound 7.8125e-6 M): 9 | FP signal ([2]; compound 1.5625e-5 M): 16 | FP signal ([2]; compound 3.125e-5 M): 30 | FP signal ([2]; compound 6.25e-5 M): 55 | FP signal ([2]; compound 0.000125 M): 97 | FP signal ([2]; compound 0.00025 M): 149 | FP signal ([2]; compound 0.0005 M): 194 | FP signal ([2]; compound 0.001 M): 224

NCCCC1NCc2ccccc2Sc2ccccc2CNC(=O)C(Cc2c[nH]c3ccccc23)NC(=O)C(Cc2ccccc2)NC1=O (stereo not shown) [CY007345]
EC50 [2]: False positive | FP signal ([2]; compound 476.8 pM): 5 | FP signal ([2]; compound 953.7 pM): 5 | FP signal ([2]; compound 1.90735e-9 M): 4 | FP signal ([2]; compound 3.8147e-9 M): 7 | FP signal ([2]; compound 7.6294e-9 M): 5 | FP signal ([2]; compound 1.52588e-8 M): 4 | FP signal ([2]; compound 3.05176e-8 M): 4 | FP signal ([2]; compound 6.10352e-8 M): 7 | FP signal ([2]; compound 1.2207e-7 M): 6 | FP signal ([2]; compound 2.44141e-7 M): 5 | FP signal ([2]; compound 4.88281e-7 M): 6 | FP signal ([2]; compound 9.76563e-7 M): 7 | FP signal ([2]; compound 1.95313e-6 M): 8 | FP signal ([2]; compound 3.90625e-6 M): 14 | FP signal ([2]; compound 7.8125e-6 M): 28 | FP signal ([2]; compound 1.5625e-5 M): 52 | FP signal ([2]; compound 3.125e-5 M): 90 | FP signal ([2]; compound 6.25e-5 M): 137 | FP signal ([2]; compound 0.000125 M): 191 | FP signal ([2]; compound 0.00025 M): 224 | FP signal ([2]; compound 0.0005 M): 238 | FP signal ([2]; compound 0.001 M): 248
